The target in one series is T1, human TLR2 (Homo sapiens, UniProt O60603).
T1 construct: host or cells: recombinant HEK-293-TLR cell lines
Briefly: TLR2 reporter assay (HEK-293-TLR cells, SEAP reporter). To be noted: compound 1 down to 5 μM; others up to 20 μM. In kind it is cell-based. As for the experimental part:
These cell lines functionally over-express human TLR2 protein as well as a reporter gene which is a secreted alkaline phosphatase (SEAP). The production of this reporter gene is driven by an NFkB inducible promoter. […] 20 μl of each test article were used to stimulate the hTLR2 reporter cell lines in a 200 μl of final reaction volume. Samples were tested in duplicate, with at least two concentrations tested −20 μM and 10 μM.
Compounds were tested using a TLR2 reporter assay (see general methods) that measured for stimulation of the TLR2 receptor.

Series [1] has as its system Human peripheral blood mononuclear cells (PBMCs). Briefly: Marker expression on PBMC by flow cytometry. In kind it is cell-based. To be noted: 24 h. As for the experimental part:
Human peripheral blood mononuclear cells (PBMCs) were purified from healthy donors with Ficoll-Paque density centrifugation. Cells were cultured in complete RPMI-1640 media (Invitrogen) supplemented with 25 mM HEPES, L-glutamine, Sodium pyruvate (Sigma), 10% fetal bovine serum, 100 μg/mL penicillin and 100 μg/mL streptomycin (Hyclone) for 24-72 hours in 37° C., 5% CO2 and stimulated with and increasing concentrations of compound 1 and 2. Cells were then washed in PBS and stained with monoclonal antibodies specific for cell surface markers (BD Pharmingen) and analysed with flow cytomtery using a BD FACS Canto II flow cytometer. All samples were tested in duplicates.
Human peripheral blood mononuclear cells (PBMCs) were purified from healthy donors with Ficoll-Paque density centrifugation. Cells were cultured in complete RPMI-1640 medium (Invitrogen) supplemented with 25 mM HEPES, L-glutamine, Sodium pyruvate (Sigma), 10% fetal bovine serum, 100 μg/mL penicillin and 100 μg/mL streptomycin (Hyclone). Cells were stimulated for 24 h (study 1-4) or 48 h to 1 week (study 5) in 37° C., 5% CO2 with increasing concentrations of compound 1 and 2 in tissue culture plates. The cells were removed from the plate, washed in PBS and analysed for expression of cell specific surface markers and MHC class I with flow cytometry using monoclonal antibodies from BD Pharmingen and a FACS Canto II flow cytometer.

For series [2], the system named is Monocytes differentiated into macrophages. Put plainly: CD80 expression on monocytes differentiated into macrophages, flow cytometry. Format: cell-based, Human. To be noted: 24 h.
The test system of series [3] is CMV specific CD8+ T cells. Put plainly: CMV cultures: phenotype of CMV specific CD8+ T cells. In kind it is cell-based, Human. The following applies: CMV antigen, 6 days. As for the experimental part: FIG. 8. Upregulation of IL-7 receptor a (CD127) on CMV specific CD8 T cells after incubation with compound 1, measured with flow cytometry.
Human peripheral blood mononuclear cells (PBMCs) were purified from healthy CMV positive donors with Ficoll-Paque density centrifugation. The PBMC were labeled with 5 μM celltrace violet (Invitrogen) in PBS for 15 minutes and then washed with complete cell culture medium. The labeled PBMC was cultured in the presence of a peptide library spanning the CMV pp65 protein (1 μg peptide/ml, JPT) in AIM-V media (Invitrogen) supplemented with L-glutamine, Sodium pyruvate (Sigma), 10% fetal bovine serum, 100 μg/mL penicillin and 100 μg/mL streptomycin (Hyclone) for 6-8 days in 37° C., 5% CO2. Cell proliferation was assessed with flow cytomtery using a BD FACS Canto II flow cytometer.
Study 7: CMV virus specific T cell proliferation was also affected by compound 1. […] CD127 is crucial for T cell homeostasis, differentiation and function, and reduced expression correlates with disease severity in HIV and other chronic viral diseases (Crawley et al Sem Imm 2012).

The test system of series [4] is PBMCs from CMV infected donors. Put plainly: IFN-gamma secretion from PBMCs of CMV infected donors with CMV antigen, cytometric bead assay. In kind it is cell-based, Human. The following applies: 3 days. The source says: FIG. 9: Interferon-gamma secretion (as measured by cytometric bead assay) from PBMCs (from a CMV+ donor) grown with CMV peptides in the presence or absence of compound 1 or 2 for 5 days.
Study 8: PBMCs from CMV infected donors cultured in the presence of CMV antigen where either untreated or exposed to compound 1 or compound 2 for 3 days.

Series [5] has as its system Macrophages from healthy donors. Put plainly: Cytokine/chemokine secretion from macrophages, cytometric bead assay. Format: cell-based. To be noted: 2 days. How it is done:
FIG. 10: Interferon-gamma secretion (as measured by cytometric bead assay) from macrophages stimulated with indicated compound for 48 h.
(§1) FIG. 11: Chemokine RANTES secretion (as measured by cytometric bead assay) from PBMC or macrophages stimulated with indicated compound for 48 h.
(§2) FIG. 12: IL12p70 secretion (as measured by cytometric bead assay) from PBMC or macrophages stimulated with indicated compound for 48 h.
(§3) FIG. 13: IL1b secretion (as measured by cytometric bead assay) from PBMC, macro-phages or CD4 T cells stimulated with indicated compound for 48 h.
Study 9: Macrophages from healthy donors where exposed to compounds 1 or 2 for 48 hours. […] Compound 1 is therefore able to induce IFN-gamma secretion in macrophages from healthy donors.
(§4) Study 10: PBMCs and macrophages where exposed to compounds 1 or 2 for 2 days (FIG. 11).
(§5) Study 11: PBMCs and macrophages where exposed to compounds 1 and 2 for 2 days.
(§6) Study 12: PBMCs, macrophages and CD4+ T cells where exposed to compounds 1 and 2 for 2 days.

In another series the test system is PBMCs. Put plainly: Cytokine/chemokine secretion from PBMC, cytometric bead assay. In kind it is cell-based. To be noted: 2 days. How it is done: as §1, §2, §3, §4, §5, §6
A further series concerns CD4+ T cells. Briefly: IL-1beta secretion from CD4+ T cells, cytometric bead assay. Format: cell-based. To be noted: 2 days. As for the experimental part:
as §3, §6

In series [6] the test system is C57bl/6 mice. Put plainly: CD25 high cells in blood of mice after i.v. injection, flow cytometry. Format: in vivo. How it is done:
FIG. 14: % CD25 high cells in blood of C57bl/6 mice injected 24 h previously with indicated dose of compound 1. CD25 expression was measured by flow cytometry.
Study 13: Compound 1 was administered i.v. to C57bl/6 mice at 0.165 mg/kg to 5 mg/kg. CD25+ cell abundance was increased in animals receiving the highest dose of 5 mg/kg (FIG. 14), as was body weight in the same group (not shown).

In series [7] the test system is C57bl/6 mice. Put plainly: MHC class I expression on CD11b+ splenocytes of mice after i.v. injection, flow cytometry. In kind it is in vivo. To be noted: spleen removed 24 h later. As for the experimental part: FIG. 15: % MHC class I high CD11b+ cells in spleen of 3 individual C57bl/6 mice injected 24 h previously with indicated compound. MHC class I and CD11b expression was measured by flow cytometry.
Study 14: Compound 1 or 2 was administered i.v. to C57bl/6 mice.

T1 sequence (O60603 21-784): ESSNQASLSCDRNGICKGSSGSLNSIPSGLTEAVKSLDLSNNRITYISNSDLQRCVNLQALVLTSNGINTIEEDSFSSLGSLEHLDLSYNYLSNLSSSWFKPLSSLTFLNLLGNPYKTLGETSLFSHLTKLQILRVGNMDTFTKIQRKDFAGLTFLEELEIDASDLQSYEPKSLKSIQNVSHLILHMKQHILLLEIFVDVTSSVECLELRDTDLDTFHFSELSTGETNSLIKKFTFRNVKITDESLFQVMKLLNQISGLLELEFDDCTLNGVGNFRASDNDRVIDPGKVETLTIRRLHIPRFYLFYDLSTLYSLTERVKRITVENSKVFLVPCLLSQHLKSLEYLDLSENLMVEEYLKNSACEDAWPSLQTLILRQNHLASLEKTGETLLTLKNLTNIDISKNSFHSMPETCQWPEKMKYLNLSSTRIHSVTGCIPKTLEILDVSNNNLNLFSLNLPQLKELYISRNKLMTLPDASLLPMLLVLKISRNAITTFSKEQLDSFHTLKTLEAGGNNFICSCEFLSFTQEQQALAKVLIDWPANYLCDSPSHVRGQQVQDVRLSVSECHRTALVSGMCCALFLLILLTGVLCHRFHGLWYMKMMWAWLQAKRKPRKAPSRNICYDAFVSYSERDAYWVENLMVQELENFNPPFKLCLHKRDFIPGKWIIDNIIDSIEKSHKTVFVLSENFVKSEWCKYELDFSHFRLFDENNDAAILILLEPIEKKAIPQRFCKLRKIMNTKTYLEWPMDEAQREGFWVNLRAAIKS

Turning to `CC[C@H]1OC(=O)[C@H](C)[C@@H](O[C@H]2C[C@@](C)(OC)[C@@H](O)[C@H](C)O2)[C@H](C)[C@@H](O[C@@H]2O[C@H](C)C[C@H](N(C)C)[C@H]2O)[C@](C)(O)C[C@@H](C)CN(C)[C@H](C)[C@@H](O)[C@]1(C)O` [Azithromycin], the “stimulation of TLR2 (in words)” value at human TLR2 is given as “little or no stimulation”.
For `CC[C@H]1OC(=O)[C@H](C)[C@@H](O[C@H]2C[C@@H](N(C)C)[C@H](O)[C@@H](C)O2)[C@H](C)[C@@H](O)[C@](C)(O)C[C@@H](C)CN(C)[C@H](C)[C@@H](O)[C@]1(C)O` [Compound 1], the “stimulation of TLR2 (in words)” value at human TLR2 is “stimulated TLR2”. Besides, in series [1] (1 μM), the “CD69 expression on B cells” value is “upregulated” and the “CD69 expression on CD4+ T cells” value is given as “upregulated”. In [1], the “CD80 expression on monocytes” value is on record as “upregulation”, the “MHC class I (HLA-ABC) expression on B-cells” value was “upregulation”, the “MHC class I (HLA-ABC) expression on T-cells” value is given as “upregulation” and the “MHC class II (HLA-DR) expression on monocytes” value is listed as “upregulation”. Besides, the “CD80 expression on macrophages” value in series [2] is “upregulated”. The “expression of IL-7 receptor a (CD127) on activated CMV specific CD8+ T cells” value in series [3] is on record as “increased expression”. For the same molecule, the IFN-gamma secretion entry in series [4] is “induced secretion of high levels”. Moreover, in series [5], the “IL-1beta secretion in macrophages” value is given as “increased” and the “RANTES expression in macrophages” value is on record as “high expression”. In the series with PBMCs, the “IL-1beta secretion in PBMCs” value is recorded as “slightly” and the “RANTES expression in PBMCs” value is on record as “twofold upregulation”. In addition, the “IL-1beta secretion in CD4+ T cells” value in the series on CD4+ T cells is “no IL-1beta was induced”. The body weight result in the series with C57bl/6 mice [6] (5 mg/kg group (not shown)) was “increased”. Further, the “CD25+ cell abundance in blood” value with C57bl/6 mice [6] (highest dose of 5 mg/kg, 24 h) is given as “increased”. The “splenocyte cells (CD11b+) with high MHC I expression” value with C57bl/6 mice [7] is “increase”.
In the case of `CC[C@H]1OC(=O)[C@H](C)[C@@H](O[C@H]2C[C@@](C)(OC)[C@@H](O)[C@H](C)O2)[C@H](C)[C@@H](O[C@@H]2O[C@H](C)C[C@H](N(C)C)[C@H]2O)[C@](C)(O)C[C@@H](C)C(=O)[C@H](C)[C@@H](O)[C@]1(C)O` [Erythromycin], the “stimulation of TLR2 (in words)” value at human TLR2 is “little or no stimulation”.

Source of the values: patent US11059846B2, “Immune stimulating compound” (ISR IMMUNE SYSTEM REGULATION HOLDING AB (PUBL), priority 2017, dated 2021).
